Measured values from ChEMBL document CHEMBL1138537, “Small-molecule scaffolds for CYP51 inhibitors identified by high-throughput screening and defined by X-ray crystallography” (Antimicrob Agents Chemother, 2007).
Active and inactive are the calls of the source. No cut-off for these calls is given here.

Key:
[1] = target: T1, Sterol 14alpha-demethylase (Mycobacterium tuberculosis, UniProt P9WPP9)
T1 sequence (P9WPP9 whole entry): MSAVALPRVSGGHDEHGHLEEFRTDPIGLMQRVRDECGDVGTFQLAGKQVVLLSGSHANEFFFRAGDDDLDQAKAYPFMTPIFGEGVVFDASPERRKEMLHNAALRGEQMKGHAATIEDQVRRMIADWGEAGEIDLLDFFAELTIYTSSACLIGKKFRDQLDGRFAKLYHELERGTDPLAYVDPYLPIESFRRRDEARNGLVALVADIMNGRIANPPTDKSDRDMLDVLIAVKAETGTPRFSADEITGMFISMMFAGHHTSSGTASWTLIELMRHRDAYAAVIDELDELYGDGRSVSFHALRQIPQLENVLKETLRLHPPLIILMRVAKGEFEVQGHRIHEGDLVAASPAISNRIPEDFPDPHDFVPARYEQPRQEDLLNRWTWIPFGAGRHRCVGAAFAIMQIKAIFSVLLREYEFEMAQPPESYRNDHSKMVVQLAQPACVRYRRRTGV

[2] = target: T1, Sterol 14alpha-demethylase; remark: listed apart in the source
[3] = tested on: Mycobacterium tuberculosis; test: Antimycobacterial activity against Mycobacterium tuberculosis H37Rv at 100 uM after 4 days by alamar blue assay; type: functional, organism-based
[4] = tested on: Mycobacterium tuberculosis; test: Antimycobacterial activity against Mycobacterium tuberculosis H37Rv at 200 uM after 4 days by alamar blue assay; type: functional, organism-based
[5] = target: T2, Steroid C26-monooxygenase (Mycobacterium tuberculosis, UniProt P9WPP1)
T2 sequence (P9WPP1 whole entry): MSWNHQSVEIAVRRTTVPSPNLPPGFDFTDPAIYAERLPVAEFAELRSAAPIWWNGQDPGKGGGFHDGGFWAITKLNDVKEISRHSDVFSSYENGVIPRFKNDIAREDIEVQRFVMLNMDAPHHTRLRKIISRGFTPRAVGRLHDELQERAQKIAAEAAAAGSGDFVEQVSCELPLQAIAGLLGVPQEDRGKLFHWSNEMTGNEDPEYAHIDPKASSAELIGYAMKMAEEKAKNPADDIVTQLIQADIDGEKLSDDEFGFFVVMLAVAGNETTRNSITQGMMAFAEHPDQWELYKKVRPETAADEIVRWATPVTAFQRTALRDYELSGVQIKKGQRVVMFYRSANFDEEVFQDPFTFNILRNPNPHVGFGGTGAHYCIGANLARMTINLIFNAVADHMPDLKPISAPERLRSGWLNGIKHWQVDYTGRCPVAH

[6] = target: T3, Cytochrome P450 130 (Mycobacterium tuberculosis, UniProt P9WPN5)
T3 sequence (P9WPN5 whole entry): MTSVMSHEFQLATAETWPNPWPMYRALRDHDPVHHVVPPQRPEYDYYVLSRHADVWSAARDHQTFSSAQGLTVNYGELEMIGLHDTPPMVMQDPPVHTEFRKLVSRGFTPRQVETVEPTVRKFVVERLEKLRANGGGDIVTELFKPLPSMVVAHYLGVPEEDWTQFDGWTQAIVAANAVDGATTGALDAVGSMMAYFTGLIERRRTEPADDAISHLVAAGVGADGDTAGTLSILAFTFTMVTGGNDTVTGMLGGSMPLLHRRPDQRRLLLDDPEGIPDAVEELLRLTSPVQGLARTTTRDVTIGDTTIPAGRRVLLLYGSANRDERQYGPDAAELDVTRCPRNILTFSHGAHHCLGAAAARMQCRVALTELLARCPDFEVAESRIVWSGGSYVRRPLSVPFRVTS

[7] = tested on: Mycobacterium tuberculosis; test: Antimycobacterial activity against Mycobacterium tuberculosis H37Rv at 250 uM after 4 days by alamar blue assay; type: functional, organism-based
[8] = tested on: Mycobacterium tuberculosis; test: Antimycobacterial activity against Mycobacterium tuberculosis H37Rv at 500 uM after 4 days by alamar blue assay; type: functional, organism-based

## C[C@]12CC[C@@H]3c4ccc(O)cc4CC[C@H]3[C@@H]1C[C@@H](O)[C@@H]2O [ESTRIOL]
[1]
  Kd: 100 µM

## c1ccc(-c2c[nH]cn2)cc1
[1]
  Kd: 1.3 µM

## O=C(Nc1ccncc1)C(NS(=O)(=O)c1cccc2nsnc12)c1ccccc1 (stereo not drawn)
[2]
  Kd: 5 µM

## CCC1(C)CC(CCN)(c2ccc(OC)cc2)CCO1 (stereo not drawn)
[2]
  Kd: 5 µM

## NCC(=O)N1c2ccccc2Sc2ccccc21
[2]
  Kd: 5 µM

## Nc1ccc(NS(=O)(=O)c2ccc(Cl)cc2)cc1
[2]
  Kd: 5 µM

## O=C(c1ccc(O)cc1)c1ccc(O)cc1
[1]
  Kd: 28 µM
[3]
  Activity: Active
[4]
  Activity: Active
[5]; mycobacterium tuberculosis
  Activity: Not Active
[6]; mycobacterium tuberculosis
  Activity: Not Active

## O=C1c2cc(O)ccc2-c2ccc(O)cc21
[1]
  Kd: 25 µM

## O=C(Nc1ccncc1)C1(c2ccccc2)CCOCC1
[2]
  Kd: 5 µM

## COc1ccccc1C(CCN)c1ccco1 (stereo not drawn)
[2]
  Kd: 5 µM

## CCC(C(=O)Nc1ccncc1)c1ccccc1 (stereo not drawn)
[7]
  Activity: Active
[8]
  Activity: Active
[5]
  Kd: 2000 µM
[6]
  Kd: 260 µM
